# Measurements reported in PubChem BioAssay AID1963975 (Molecular Pharmacology Branch, DTP, NCI, 2024).
# Tested on: 624824-186-R-J2-PDC multicell spheroids, viability
# Test: Anticancer human tumor 624824-186-R-J2-PDC patient-derived colon adenocarcinoma cell line growth inhibition [PI3K]
# Conditions: for IC50: curve of first compound; for viability, T/C: stronger effect = lower value
# Excerpt: Combinatorial screen of targeted agents with the PI3K inhibitors inavolisib, alpelisib, duvelisib, and copanlisib in multi-cell type tumor spheroids
# A high-throughput screen of multi-cell type tumor spheroids was designed to identify active combinations of targeted small molecules and PI3K pathway inhibitors. Complex spheroids include a stromal component modeled by human endothelial cells (HUVEC) and fibroblasts modeled by human mesenchymal stem cells (MSCs). The concentration ranges selected for each drug and investigational agent were based upon clinically achievable concentrations if the clinical Cmax of the agent was known.
# Compounds. The drugs and investigational agents: inavolisib (NSC800729), alpelisib (NSC765974), duvelisib (NSC772469), copanlisib (NSC816437), ipatasertib (NSC767898), afuresertib (NSC778305), talazoparib (NSC767125), sapanisertib (NSC764658), selumetinib (NSC741078), tovorafenib (DAY101, NSC766906), vemurafenib (NSC761431), ravoxertinib (NSC781343), sotorasib (NSC818433), MRTX1133 (NSC 836407), abemaciclib (NSC 768073), palbociclib (NSC758247), venetoclax (NSC 766270), SY5609 (NSC837396), enzalutamide (NSC755605), and darolutamide (NSC825331), were obtained from the National Cancer Institute (NCI) Developmental Therapeutics Program Chemical Repository. The FDA-approved anticancer drug set is available from the NCI Developmental Therapeutics Program. […] The stock solutions were prepared in dimethyl sulfoxide (DMSO, Sigma-Aldrich, St. Louis, MO, cat. D2650) at 800-fold the tested concentration and stored at -70 degrees C prior to their use. All drugs and investigational agents were tested over a range starting from a high concentration at or near the clinical Cmax and decreasing in half-log increments. If the clinical Cmax for an agent had not been determined, the highest concentration tested was 10 microM.
# Cell Culture. All cells were maintained in an incubator at 37 degrees C and 5% CO2 with 95% humidity. The PDC lines were cultured according to standard operating procedures established by the NCI PDMR (https://pdmr.cancer.gov/sops/default.htm). All PDCs were thawed and cultured in Matrigel-coated flasks prepared with a working solution of 1X Ham's F-12 nutrient mix, without supplementation (Invitrogen, Waltham, MA, cat. 11765054), 100 U/mL penicillin-streptomycin (Invitrogen, cat. 15140122), and 2.5% Matrigel (Corning Inc., Corning, NY, cat. 354248) for the first three passages. The 354836-022-R-J1-PDC, 475296-252-R-J1-PDC, and 997726-040-R-J2-PDC lines were cultured in 6A media, which includes advanced DMEM/F-12 (Thermo Fisher Scientific, cat. 12634028), 10 mM HEPES (Thermo Fisher Scientific, cat. 15630080), 1X GlutaMAX supplement (Thermo Fisher Scientific, cat. 35050061), 0.1 mg/mL primocin (InvivoGen, San Diego, CA, cat. ant-pm-2), 10% defined fetal bovine serum, heat inactivated (HyClone Laboratories Inc., Logan, UT, cat. SH30070.03HI), 50% L-WRN conditioned media (ATCC, cat. CRL-3276), 1.25 mM N-Acetyl-L-cysteine (Sigma-Aldrich, cat. A9165), 10 mM nicotinamide (Sigma-Aldrich, cat. N0636), 1X B-27 supplement (Thermo Fisher Scientific, cat. 17504044), 1X N-2 supplement (Thermo Fisher Scientific, cat. 17502048), and 10 microM Y-27632 dihydrochloride (Tocris Bioscience, Bristol, United Kingdom, cat. 1254). The 624824-186-R-J2-PDC line was cultured in 6C/Colon 1B media, which includes all 6A media components plus 50 ng/mL human EGF recombinant protein (Thermo Fisher Scientific, cat. PHG0311). […]
# [1] = second compound 0.00316 µM, first compound 0.000316 µM
# [2] = second compound 0.00316 µM, first compound 0.001 µM
# [3] = second compound 0.00316 µM, first compound 0.00316 µM
# [4] = second compound 0.00316 µM, first compound 0.01 µM
# [5] = second compound 0.00316 µM, first compound 0.0316 µM
# [6] = second compound 0.00316 µM, first compound 0.1 µM
# [7] = second compound 0.01 µM, first compound 0.000316 µM
# [8] = second compound 0.01 µM, first compound 0.001 µM
# [9] = second compound 0.01 µM, first compound 0.00316 µM
# [10] = second compound 0.01 µM, first compound 0.01 µM
# [11] = second compound 0.01 µM, first compound 0.0316 µM
# [12] = second compound 0.01 µM, first compound 0.1 µM
# [13] = second compound 0.0316 µM, first compound 0.000316 µM
# [14] = second compound 0.0316 µM, first compound 0.001 µM
# [15] = second compound 0.0316 µM, first compound 0.00316 µM
# [16] = second compound 0.0316 µM, first compound 0.01 µM
# [17] = second compound 0.0316 µM, first compound 0.0316 µM
# [18] = second compound 0.0316 µM, first compound 0.1 µM
# [19] = second compound 0.1 µM, first compound 0.000316 µM
# [20] = second compound 0.1 µM, first compound 0.001 µM
# [21] = second compound 0.1 µM, first compound 0.00316 µM
# [22] = second compound 0.1 µM, first compound 0.01 µM
# [23] = second compound 0.1 µM, first compound 0.0316 µM
# [24] = second compound 0.1 µM, first compound 0.1 µM
# [25] = second compound 0.316 µM, first compound 0.000316 µM
# [26] = second compound 0.316 µM, first compound 0.001 µM
# [27] = second compound 0.316 µM, first compound 0.00316 µM
# [28] = second compound 0.316 µM, first compound 0.01 µM
# [29] = second compound 0.316 µM, first compound 0.0316 µM
# [30] = second compound 0.316 µM, first compound 0.1 µM
# [31] = second compound 1 µM, first compound 0.000316 µM
# [32] = second compound 1 µM, first compound 0.001 µM
# [33] = second compound 1 µM, first compound 0.00316 µM
# [34] = second compound 1 µM, first compound 0.01 µM
# [35] = second compound 1 µM, first compound 0.0316 µM
# [36] = second compound 1 µM, first compound 0.1 µM
# 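Also: spheroids exposed to agents for 7 days before viability read.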
# 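For viability, T/C in this document: 100% = DMSO vehicle treated spheroids.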
smiles,measurement,setting,value
CC(=O)c1c(C)c2cnc(Nc3ccc(N4CCNCC4)cn3)nc2n(C2CCCC2)c1=O + CC(Nc1ccc2c(c1)OCCn1cc(N3C(=O)OCC3C(F)F)nc1-2)C(N)=O,IC50,second compound 0.00316 µM,> 0.1 µM
same,IC50,second compound 0.01 µM,> 0.1 µM
same,IC50,second compound 0.0316 µM,> 0.1 µM
same,IC50,second compound 0.1 µM,> 0.1 µM
same,IC50,second compound 0.316 µM,> 0.1 µM
same,IC50,second compound 1 µM,> 0.1 µM
same,"viability, T/C",[1],105%
same,"viability, T/C",[2],80.9%
same,"viability, T/C",[3],108%
same,"viability, T/C",[4],96.2%
same,"viability, T/C",[5],82.7%
same,"viability, T/C",[6],89.9%
same,"viability, T/C",[7],114%
same,"viability, T/C",[8],92.7%
same,"viability, T/C",[9],106%
same,"viability, T/C",[10],101%
same,"viability, T/C",[11],93.7%
same,"viability, T/C",[12],91.7%
same,"viability, T/C",[13],104%
same,"viability, T/C",[14],94.2%
same,"viability, T/C",[15],113%
same,"viability, T/C",[16],85.2%
same,"viability, T/C",[17],101%
same,"viability, T/C",[18],102%
same,"viability, T/C",[19],86.7%
same,"viability, T/C",[20],101%
same,"viability, T/C",[21],91.2%
same,"viability, T/C",[22],75.5%
same,"viability, T/C",[23],80.1%
same,"viability, T/C",[24],87.7%
same,"viability, T/C",[25],87.7%
same,"viability, T/C",[26],76.6%
same,"viability, T/C",[27],78.8%
same,"viability, T/C",[28],85.8%
same,"viability, T/C",[29],87%
same,"viability, T/C",[30],113%
same,"viability, T/C",[31],90%
same,"viability, T/C",[32],85.4%
same,"viability, T/C",[33],86.5%
same,"viability, T/C",[34],87.3%
same,"viability, T/C",[35],86.1%
same,"viability, T/C",[36],93.1%
CC(C)n1nc(-c2ccc3oc(N)nc3c2)c2c(N)ncnc21 + CC(Nc1ccc2c(c1)OCCn1cc(N3C(=O)OCC3C(F)F)nc1-2)C(N)=O,IC50,second compound 0.00316 µM,> 0.1 µM
same,IC50,second compound 0.01 µM,> 0.1 µM
same,IC50,second compound 0.0316 µM,> 0.1 µM
same,IC50,second compound 0.1 µM,> 0.1 µM
same,IC50,second compound 0.316 µM,> 0.1 µM
same,IC50,second compound 1 µM,> 0.1 µM
same,"viability, T/C",[1],74%
same,"viability, T/C",[2],86.9%
same,"viability, T/C",[3],95.5%
same,"viability, T/C",[4],92.1%
same,"viability, T/C",[5],89.2%
same,"viability, T/C",[6],87.5%
same,"viability, T/C",[7],106%
same,"viability, T/C",[8],110%
same,"viability, T/C",[9],107%
same,"viability, T/C",[10],86.8%
same,"viability, T/C",[11],105%
same,"viability, T/C",[12],87.2%
same,"viability, T/C",[13],83.5%
same,"viability, T/C",[14],81.4%
same,"viability, T/C",[15],67.6%
same,"viability, T/C",[16],78.1%
same,"viability, T/C",[17],91.9%
same,"viability, T/C",[18],90.4%
same,"viability, T/C",[19],88.3%
same,"viability, T/C",[20],96.8%
same,"viability, T/C",[21],96.8%
same,"viability, T/C",[22],68.4%
same,"viability, T/C",[23],84.5%
same,"viability, T/C",[24],92.5%
same,"viability, T/C",[25],74.9%
same,"viability, T/C",[26],96.1%
same,"viability, T/C",[27],78.7%
same,"viability, T/C",[28],72.3%
same,"viability, T/C",[29],82.2%
same,"viability, T/C",[30],75.4%
same,"viability, T/C",[31],97%
same,"viability, T/C",[32],78.9%
same,"viability, T/C",[33],85%
same,"viability, T/C",[34],88.5%
same,"viability, T/C",[35],84.1%
same,"viability, T/C",[36],72%
CCCS(=O)(=O)Nc1ccc(F)c(C(=O)c2c[nH]c3ncc(-c4ccc(Cl)cc4)cc23)c1F + CC(Nc1ccc2c(c1)OCCn1cc(N3C(=O)OCC3C(F)F)nc1-2)C(N)=O,IC50,second compound 0.00316 µM,10 µM
same,IC50,second compound 0.01 µM,8.49 µM
same,IC50,second compound 0.0316 µM,7.85 µM
same,IC50,second compound 0.1 µM,6.22 µM
same,IC50,second compound 0.316 µM,4.65 µM
same,IC50,second compound 1 µM,3.58 µM
same,"viability, T/C",[5],78.1%
same,"viability, T/C",[6],112%
same,"viability, T/C","second compound 0.00316 µM, first compound 0.316 µM",87.8%
same,"viability, T/C","second compound 0.00316 µM, first compound 1 µM",119%
same,"viability, T/C","second compound 0.00316 µM, first compound 3.16 µM",113%
same,"viability, T/C","second compound 0.00316 µM, first compound 10 µM",50%
same,"viability, T/C",[11],92.7%
same,"viability, T/C",[12],89.7%
same,"viability, T/C","second compound 0.01 µM, first compound 0.316 µM",73.6%
same,"viability, T/C","second compound 0.01 µM, first compound 1 µM",82.7%
same,"viability, T/C","second compound 0.01 µM, first compound 3.16 µM",109%
same,"viability, T/C","second compound 0.01 µM, first compound 10 µM",43.5%
same,"viability, T/C",[17],82.7%
same,"viability, T/C",[18],88.3%
same,"viability, T/C","second compound 0.0316 µM, first compound 0.316 µM",73.5%
same,"viability, T/C","second compound 0.0316 µM, first compound 1 µM",89.1%
same,"viability, T/C","second compound 0.0316 µM, first compound 3.16 µM",108%
same,"viability, T/C","second compound 0.0316 µM, first compound 10 µM",39.7%
same,"viability, T/C",[23],80%
same,"viability, T/C",[24],89.8%
same,"viability, T/C","second compound 0.1 µM, first compound 0.316 µM",81.9%
same,"viability, T/C","second compound 0.1 µM, first compound 1 µM",72.3%
same,"viability, T/C","second compound 0.1 µM, first compound 3.16 µM",76.3%
same,"viability, T/C","second compound 0.1 µM, first compound 10 µM",32.7%
same,"viability, T/C",[29],67.9%
same,"viability, T/C",[30],78.5%
same,"viability, T/C","second compound 0.316 µM, first compound 0.316 µM",71.7%
same,"viability, T/C","second compound 0.316 µM, first compound 1 µM",68%
same,"viability, T/C","second compound 0.316 µM, first compound 3.16 µM",62.1%
same,"viability, T/C","second compound 0.316 µM, first compound 10 µM",26.8%
same,"viability, T/C",[35],80.5%
same,"viability, T/C",[36],68.6%
same,"viability, T/C","second compound 1 µM, first compound 0.316 µM",68.7%
same,"viability, T/C","second compound 1 µM, first compound 1 µM",53.2%
same,"viability, T/C","second compound 1 µM, first compound 3.16 µM",63.1%
same,"viability, T/C","second compound 1 µM, first compound 10 µM",23.8%
